From ChEMBL document CHEMBL1201862, “PubChem BioAssay data set” (2004)
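How tested: cells in 96-well plates exposed to compound for 48 hours at five concentrations. GI50 = concentration required for 50% inhibition of growth.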 The source made the active and inactive calls. Rule as the data show it: active = GI50 up to about 1.1 µM and inactive = higher. *1 amine or outer side, *2 acyl side, *3 side chain or, on linkers, in order; H or OH if unused. Where a SMILES comes first, the peptide text is derived from it. [ ]: non-standard residue; d: D form. The star is where a group is joined. ξ: configuration not given here. X26 = O=C([C@H]1CCC[C@H]1N[*:1])[*:2]; ξW = NC(Cc1c[nH]c2ccccc12)C(=O)O; ξF = NC(Cc1ccccc1)C(=O)O; Boc = CC(C)(C)OC(=O)*; ξK = NCCCCC(N)C(=O)O; ξT = CC(O)C(N)C(=O)O; tBu = CC(C)(C)*

Experiments:
Assay in all cases: NCI tumour cell line growth inhibition, 48 h
[1] = test system: HT-29
[2] = test system: LOX IMVI
[3] = test system: RXF 393
[4] = test system: SF-268
[5] = test system: TK-10
[6] = test system: SF-539
[7] = test system: COLO 205
[8] = test system: SK-MEL-2
[9] = test system: SF-295
[10] = test system: MDA-MB-435
[11] = test system: KM12
[12] = test system: HCC 2998
[13] = test system: SK-MEL-5
[14] = test system: A498
[15] = test system: NCI-H23
[16] = test system: OVCAR-8
[17] = test system: SK-OV-3
[18] = test system: MDA-N
[19] = test system: Malme-3M

Measured: GI50

CCOC(=O)c1nc2ccc(C(F)(F)F)cc2nc1Oc1ccc(F)cc1
inactive: [1] > 100 µM | [2] > 100 µM | [3] > 100 µM | [4] > 100 µM | [5] > 100 µM | [6] > 100 µM | [7] > 100 µM | [8] > 100 µM | [9] > 100 µM | [10] > 100 µM | [11] > 100 µM | [12] > 100 µM | [13] > 100 µM | [14] > 100 µM | [15] > 100 µM | [16] > 100 µM | [17] > 100 µM

COC(=O)C(Cc1ccc(OC)cc1O)NC(=O)OC(C)(C)C (centres undefined)
inactive: [1] > 100 µM | [2] > 100 µM | [18] > 100 µM | [3] > 100 µM | [4] > 100 µM | [5] > 100 µM | [6] > 100 µM | [7] > 100 µM | [8] > 100 µM | [9] > 100 µM | [10] > 100 µM | [11] > 100 µM | [12] > 100 µM | [13] 61.7 µM | [19] 78.5 µM | [15] 86.3 µM | [16] > 100 µM | [17] > 100 µM

CC(=O)Oc1ccn2nc(C)c(Cc3c(C)nn4ccc(OC(C)=O)cc34)c2c1
inactive: [1] > 100 µM | [2] 79.1 µM | [18] > 10 µM | [4] > 100 µM | [5] > 100 µM | [6] 51.4 µM | [8] 34.6 µM | [9] 23 µM | [10] 25.1 µM | [11] > 100 µM | [13] > 100 µM | [19] > 100 µM | [15] > 100 µM | [16] > 100 µM

Cc1nc(-c2cc3c(ccc4ccccc43)oc2=O)cc2c1c(=O)oc1ccc3ccccc3c12
inactive: [1] > 100 µM | [2] > 100 µM | [3] > 100 µM | [4] > 100 µM | [5] > 100 µM | [6] > 100 µM | [7] > 100 µM | [8] > 100 µM | [9] > 100 µM | [10] > 100 µM | [11] > 100 µM | [12] > 100 µM | [13] > 100 µM | [14] > 100 µM | [19] > 100 µM | [15] > 100 µM | [16] > 100 µM | [17] > 100 µM

CC(OC(C)(C)C)C1NC(=O)C(CCCCNC(=O)OC(C)(C)C)NC(=O)C(Cc2c[nH]c3ccccc23)NC(=O)C(Cc2ccccc2)NC(=O)[C@H]2CCC[C@H]2NC(=O)C(Cc2ccccc2)NC1=O (some centres undefined) (cyclo([X26][ξF][ξW][ξK](Boc)[ξT](tBu)[ξF]))
inactive: [1] 11.4 µM | [2] 16.1 µM | [18] 56.2 µM | [3] > 100 µM | [4] > 100 µM | [6] 75.9 µM | [7] 18.9 µM | [8] 26.1 µM | [9] 9.79 µM | [10] 29.9 µM | [11] > 100 µM | [12] 12.2 µM | [13] 3.13 µM | [19] > 100 µM | [15] 23.8 µM | [16] 18.2 µM | [17] 48 µM

O=C1NN=C(O)C2C3c4ccccc4C(c4ccccc43)C12 (centres undefined)
inactive: [1] > 100 µM | [2] > 100 µM | [18] > 100 µM | [3] > 100 µM | [4] > 100 µM | [5] > 100 µM | [6] > 100 µM | [7] > 100 µM | [9] > 100 µM | [11] > 100 µM | [12] > 100 µM | [13] > 100 µM | [14] > 100 µM | [19] > 100 µM | [15] > 100 µM | [16] > 100 µM | [17] > 100 µM

CC(C)c1c(O)ccc2c1CCC1C(C)(C)CCCC21C (centres undefined)
inactive: [1] 16.9 µM | [2] 17.1 µM | [18] 17.1 µM | [3] 15.1 µM | [4] 19.9 µM | [5] 20.7 µM | [6] 18.7 µM | [7] 17.8 µM | [8] 16.7 µM | [9] 17.9 µM | [10] 18.6 µM | [11] 20.5 µM | [12] 22 µM | [13] 16.3 µM | [19] 18.6 µM | [15] 17.3 µM | [16] 17.8 µM | [17] 18.9 µM

CCc1c(O)cc(=O)oc1-c1ccc(OC)c(OC)c1
inactive: [1] > 100 µM | [2] > 100 µM | [3] > 100 µM | [4] > 100 µM | [5] > 100 µM | [6] > 100 µM | [7] > 100 µM | [8] > 100 µM | [9] > 100 µM | [10] > 100 µM | [11] > 100 µM | [12] > 100 µM | [13] > 100 µM | [14] > 100 µM | [15] > 100 µM | [16] > 100 µM | [17] > 100 µM

CC(NC(=O)C1CCCN1C(=O)CNC(=O)OC(C)(C)C)C(=O)O (stereo not drawn) (Boc-Gly-Pro-Ala-OH; configuration not given here)
inactive: [1] > 100 µM | [18] > 100 µM | [3] > 100 µM | [4] > 100 µM | [5] > 100 µM | [6] > 100 µM | [7] > 100 µM | [8] > 100 µM | [9] > 100 µM | [10] > 100 µM | [11] > 100 µM | [12] > 100 µM | [13] > 100 µM | [19] > 100 µM | [15] > 100 µM | [16] > 100 µM | [17] > 100 µM

SCCSCCCSCCS
inactive: [1] > 100 µM | [2] 47.5 µM | [18] > 100 µM | [4] > 100 µM | [6] > 100 µM | [7] 86.9 µM | [9] 76.9 µM | [10] > 100 µM | [11] > 100 µM | [12] > 100 µM | [13] > 100 µM | [15] > 100 µM | [16] > 100 µM | [17] > 100 µM

COc1ccc(C2C(C=O)C(N3CCN(C)CC3)=Nc3nc4ccccc4n32)cc1 (centres undefined)
inactive: [1] 15.8 µM | [2] 17.3 µM | [3] 13.6 µM | [4] 16.6 µM | [5] 14.3 µM | [6] 22.1 µM | [7] 16.8 µM | [8] 13.1 µM | [9] 19.9 µM | [10] 15.5 µM | [11] 16.3 µM | [12] 17.7 µM | [13] 15.9 µM | [14] 11 µM | [19] 10.8 µM | [15] 20.5 µM | [16] 16.2 µM
